The target in data set [1] is T1, human 5-hydroxytryptamine-2C (h5-HT2C) receptor (Homo sapiens, UniProt P28335).
T1 construct: expressed in transfected cells; host or cells: CHO (Chinese Hamster Ovary) cells; membranes
T1 sequence (P28335 33-458): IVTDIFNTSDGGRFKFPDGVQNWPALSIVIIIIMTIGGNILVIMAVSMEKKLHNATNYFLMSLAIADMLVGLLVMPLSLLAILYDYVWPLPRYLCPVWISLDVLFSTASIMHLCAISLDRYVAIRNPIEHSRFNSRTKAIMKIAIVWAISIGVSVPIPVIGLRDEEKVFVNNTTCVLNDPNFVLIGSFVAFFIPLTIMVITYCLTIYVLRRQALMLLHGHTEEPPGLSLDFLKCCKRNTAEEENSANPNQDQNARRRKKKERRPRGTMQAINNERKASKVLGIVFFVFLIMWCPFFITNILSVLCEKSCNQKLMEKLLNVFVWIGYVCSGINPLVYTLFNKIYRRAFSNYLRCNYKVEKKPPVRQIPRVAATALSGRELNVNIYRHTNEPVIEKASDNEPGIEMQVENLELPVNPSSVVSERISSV
Kind of data set: [125I]DOI binding affinity at h5-HT2C receptor, CHO cell membranes. The settings on record: [125I]DOI displacement, CHO membranes expressing h5-HT2C; read-out: 5-HT2C Affinity Ki.

The target in another data set is T2, human 5-HT2C receptor (Homo sapiens, UniProt P28335).
T2 sequence (P28335 33-458): T1 sequence (P28335 33-458)
The data set is described as follows: 5-HT2C receptor-stimulated calcium mobilization (FLIPR) in CHO cells. It counts as cell-based. The settings on record: for EC50: calcium mobilization, CHO cells expressing human 5-HT2C, read-out: 5-HT2C Function EC50.

The structures appear in SMILES notation. Where a name gives a salt, the structure may show the parent alone.

A word on the melting point: it is the temperature of the solid-liquid transition. As usually defined, the Ki is the equilibrium dissociation constant of an inhibitor or competing ligand from its target. One may read the EC50 as the concentration at which the effect is half-maximal. As usually defined, the Emax is the maximal effect, on the per cent scale that the assay sets.

Consider `NCC1Cc2ccc3c(c2O1)CCC3` (racemic) (as salt: hydrochloride) [Example 1, (±)-1-(3,6,7,8-tetrahydro-2H-indeno[4,5-b]furan-2-yl)methanamine], for which the melting point is > 230 °C (dec.).
Still for that read-out and setting: then `NCC1Cc2ccc3c(c2O1)CCCC3` (racemic) (as salt: hydrochloride) [Example 4, (±)-1-(2,3,6,7,8,9-hexahydronaphtho[1,2-b]furan-2-yl)methanamine], with > 220 °C (dec.); and `Cc1cc2c(c3c1CCC3)OC(CN)C2` (racemic) (as salt: hydrochloride) [Example 7, (±)-1-(5-methyl-3,6,7,8-tetrahydro-2H-indeno[4,5-b]furan-2-yl)methanamine], with > 200 °C (dec.).
Still for that read-out and setting: then `NCC1Cc2ccc3ccccc3c2O1` (racemic) (as salt: hydrochloride) [Example 10, (±)-1-(2,3-dihydronaphtho[1,2-b]furan-2-yl)methanamine], with > 250 °C (dec.); and `NCC1Cc2cc3c(cc2O1)CCCC3` (racemic) (as salt: hydrochloride) [Example 13, (±)-1-(2,3,5,6,7,8-hexahydronaphtho[2,3-b]furan-2-yl)methanamine], with greater than 225 °C; and `NCC1Cc2c(ccc3c2CCCC3)O1` (racemic) (as salt: hydrochloride) [Example 14, (±)-1-(1,2,6,7,8,9-hexahydronaphtho[2,1-b]furan-2-yl)methanamine], with greater than 225 °C.
The same measure, in the same setting: the same measure for `COc1cc2c(c3c1C1CCC3CC1)OC(CN)C2` (racemic) (as salt: hydrochloride) [Example 19, (±)-1-(5-methoxy-2,3,6,7,8,9-hexahydro-6,9-ethanonaphtho[1,2-b]furan-2-yl)methanamine]: greater than 210 °C; for `NCC1Cc2cc(Cl)c3ccccc3c2O1` (racemic) (as salt: hydrochloride) [Example 23, (±)-1-(5-chloro-2,3-dihydronaphtho[1,2-b]furan-2-yl)methanamine]: 269 to 271 °C; for `CNCC1Cc2cc(Cl)c3ccccc3c2O1` (racemic) (as salt: hydrochloride) [Example 24, (±)-1-(5-chloro-2,3-dihydronaphtho[1,2-b]furan-2-yl)-N-methylmethanamine]: 224 to 226 °C.
`NCC1Cc2c(Cl)cc3c(c2O1)CCC3` (racemic) (as salt: hydrochloride) [Example 25, (±)-1-(4-chloro-3,6,7,8-tetrahydro-2H-indeno[4,5-b]furan-2-yl)methanamine] had a melting point of 251 to 254 °C.
For the compound `NCC1Cc2cc(Cl)c3c(c2O1)CCC3` (racemic) (as salt: hydrochloride) [Example 29, (±)-1-(5-chloro-3,6,7,8-tetrahydro-2H-indeno[4,5-b]furan-2-yl)methanamine], the melting point was 270 °C (dec.).
`CNCC1Cc2c(Cl)cc3c(c2O1)CCC3` (racemic) [Example 28, (±)-1-(4-chloro-3,6,7,8-tetrahydro-2H-indeno[4,5-b]furan-2-yl)-N-methylmethanamine] displayed a melting point of 58 to 60 °C. In data set [1], the Ki was 11 nM.
Compound `C[C@@H](N)[C@H]1Cc2ccc3c(c2O1)CCC3` (relative stereo) (as salt: hydrochloride) [Example 22, (2R*)-1-[(2R*)-3,6,7,8-tetrahydro-2H-indeno[4,5-b]furan-2-yl]ethylamine] registered a melting point greater than 250 °C.
In the case of `COc1cc2c(c3c1C1CCC3C1)OC(CN)C2` (single isomer, unassigned) (as salt: hydrochloride) [Example 16, (9-methoxy-4-oxatetracyclo[9.2.1.0^2,10.0^3,7]tetradeca-2,7,9-trien-5-yl)methylamine], the melting point was > 180 °C (dec.).
In the case of `COc1cc2c(c3c1C1CCC3C1)OC(CN)C2` (single isomer, unassigned) (as salt: hydrochloride) [Example 17, (9-methoxy-4-oxatetracyclo[9.2.1.0^2,10.0^3,7]tetradeca-2,7,9-trien-5-yl)methylamine], the melting point is > 150 °C (dec.).
The compound `Cc1cc2c(c3c1CCC3)OC(CN)C2` (single isomer, unassigned; (+)) (as salt: hydrochloride) [Example 8, (+)-1-(5-methyl-3,6,7,8-tetrahydro-2H-indeno[4,5-b]furan-2-yl)methanamine] displayed a melting point greater than 220 °C.
On the same count and under the same terms, then `COc1cc2c(c3c1C1CCC3CC1)OC(CN)C2` (single isomer, unassigned; (+)) (as salt: hydrochloride) [Example 20, (+)-1-(5-methoxy-2,3,6,7,8,9-hexahydro-6,9-ethanonaphtho[1,2-b]furan-2-yl)methanamine], with greater than 220 °C.
Still for that read-out and setting: the same measure for `NCC1Cc2cc(Cl)c3c(c2O1)CCC3` (single isomer, unassigned; (-)) (as salt: hydrobromid) [Example 30, (−)-1-(5-chloro-3,6,7,8-tetrahydro-2H-indeno[4,5-b]furan-2-yl)methanamine]: greater than 330 °C; for `NCC1Cc2c(Cl)cc3c(c2O1)CCC3` (single isomer, unassigned; (-)) (as salt: hydrochloride) [Example 26, (−)-1-(4-chloro-3,6,7,8-tetrahydro-2H-indeno[4,5-b]furan-2-yl)methanamine]: 265 to 268 °C.
In the case of `NCC1Cc2cc(Cl)c3c(c2O1)CCC3` (single isomer, unassigned; (-)) [Example 30, (−)-1-(5-chloro-3,6,7,8-tetrahydro-2H-indeno[4,5-b]furan-2-yl)methanamine], the EC50 at human 5-HT2C receptor is 234 nM. In addition, the “5-HT2C Function Emax (%)” value at human 5-HT2C receptor (percentage of the response to a maximally effective concentration of 5-HT) stood at 80%. In addition, the Ki in data set [1] was determined as 6 nM.
Regarding `COc1cc2c(c3c1C1CCC3C1)OC(CN)C2` (centres unmarked) [Example 15, (9-methoxy-4-oxatetracyclo[9.2.1.0^2,10.0^3,7]tetradeca-2,7,9-trien-5-yl)methylamine], the Emax at human 5-HT2C receptor (CHO, percentage of the response to a maximally effective concentration of 5-HT, read-out: 5-HT2C Function Emax (%)) came to 100%. At human 5-HT2C receptor, the EC50 was 17 nM. In data set [1], the Ki was determined as 9 nM.

(Values after patent publication US7728155B2, “Dihydrobenzofuranyl alkanamines and methods for using same as cns agents” (Wyeth LLC, priority 2003, dated 2010).)
